The compounds below were run against T1, NL20 human bronchial epithelial cells expressing human Z-AAT (Homo sapiens, UniProt P01009, E366K) (assay: AAT Function Assay (MSD Assay NL20-SI Cell Line)). Conditions: NL20 Func. (EC50), functionally active AAT (AAT-hNE complex) in supernatant of NL20 cells expressing human Z-AAT.
T1 construct: expressed in transfected cells; host or cells: NL20 human bronchial epithelial cells (NL20-SI line, doxycycline added)
Assay type: cell-based
Procedure, shortened: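 NL20 cells expressing Z-AAT, seeded 16,000 cells/well, received compound with doxycycline (0.1 μM final) and were incubated overnight at 37° C. Supernatants, diluted 45-fold in total, reacted with excess human neutrophil elastase; AAT-elastase complex captured on anti-AAT plates, detected with Sulfo-tagged anti-elastase by MSD electrochemiluminescence, and quantified against M-AAT standards (0.156-320 ng/mL).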

T1 sequence (P01009 25-418 E366K): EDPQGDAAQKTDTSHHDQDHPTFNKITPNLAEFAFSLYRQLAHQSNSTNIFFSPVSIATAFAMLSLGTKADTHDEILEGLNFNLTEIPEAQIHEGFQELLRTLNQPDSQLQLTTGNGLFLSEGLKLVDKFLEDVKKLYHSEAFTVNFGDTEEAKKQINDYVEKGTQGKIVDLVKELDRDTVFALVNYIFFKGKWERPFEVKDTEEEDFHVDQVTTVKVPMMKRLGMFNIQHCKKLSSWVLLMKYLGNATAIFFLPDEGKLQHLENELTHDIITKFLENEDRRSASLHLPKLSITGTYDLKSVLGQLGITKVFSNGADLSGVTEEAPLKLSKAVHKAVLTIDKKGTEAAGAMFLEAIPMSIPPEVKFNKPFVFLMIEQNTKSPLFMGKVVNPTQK

SMILES	EC50
Cc1cccc(-n2c(C(C)C)c(C#N)c3cc4[nH]ncc4cc32)c1 [Compound 44, 6-isopropyl-5-(m-tolyl)-1H-pyrrolo[2,3-f]indazole-7-carbonitrile]	> 3 µM

Same assay, conditions: functionally active AAT (AAT-hNE complex) in supernatant of NL20 cells expressing human Z-AAT; read-out: NL20 Func. (EC50)

SMILES	EC50
Cc1cc(-n2c(C(C)C)c(I)c3cc4[nH]nc(F)c4cc32)ccc1F [Compound 46, 3-fluoro-5-(4-fluoro-3-methyl-phenyl)-7-iodo-6-isopropyl-1H-pyrrolo[2,3-f]indazole]	> 3 µM
Cc1cc(-n2c(C(C)C)c(C(=O)N3CCN(C)CC3)c3cc4[nH]ncc4cc32)ccc1F [Compound 5, [5-(4-fluoro-3-methyl-phenyl)-6-isopropyl-1H-pyrrolo[2,3-f]indazol-7-yl]-(4-methylpiperazin-1-yl)methanone]	> 3 µM
N#Cc1c(C2CCOCC2)n(-c2ccc(F)cc2)c2cc3cn[nH]c3cc12 [Compound 61, 5-(4-fluorophenyl)-6-tetrahydropyran-4-yl-1H-pyrrolo[2,3-f]indazole-7-carbonitrile]	> 3 µM
Cc1cc(-n2c(C3(C)COC3)cc3cc4[nH]ncc4cc32)ccc1F [Compound 138, 5-(4-fluoro-3-methyl-phenyl)-6-(3-methyloxetan-3-yl)-1H-pyrrolo[2,3-f]indazole]	> 3 µM
Cc1cc(-n2c(C(C)C)c(N3CCCC3=O)c3cc4[nH]ncc4cc32)ccc1F [Compound 8, 1-[5-(4-fluoro-3-methyl-phenyl)-6-isopropyl-1H-pyrrolo[2,3-f]indazol-7-yl]pyrrolidin-2-one]	> 3 µM
Cc1cc(-n2c(C(C)C)c(CCC(=O)O)c3cc4[nH]ncc4cc32)ccc1F [Compound 16, 3-[5-(4-fluoro-3-methyl-phenyl)-6-isopropyl-1H-pyrrolo[2,3-f]indazol-7-yl]propanoic acid]	1.16 to 3 µM
CS(=O)(=O)c1c(C2CCOCC2)n(-c2ccc(F)cc2)c2cc3cn[nH]c3cc12 [Compound 62, 5-(4-fluorophenyl)-7-methylsulfonyl-6-tetrahydropyran-4-yl-1H-pyrrolo[2,3-f]indazole]	> 3 µM
Cc1cc(-n2c(C(C)C)c(CCC(=O)O)c3c(C)c4[nH]ncc4cc32)ccc1F [Compound 51, 3-[5-(4-fluoro-3-methyl-phenyl)-6-isopropyl-8-methyl-1H-pyrrolo[2,3-f]indazol-7-yl]propanoic acid]	1.16 to 3 µM
O=C(O)[C@H]1CC[C@H](Cc2c(C3CCOCC3)n(-c3ccc(F)cc3)c3cc4cn[nH]c4cc23)CC1 [Compound 119]	1.16 to 3 µM
CC(C)c1c(CCC(=O)O)n(-c2ccc(F)cc2)c2cc3cn[nH]c3cc12 [Compound 194, 3-[5-(4-fluorophenyl)-7-isopropyl-1H-pyrrolo[2,3-f]indazol-6-yl]propanoic Acid]	> 3 µM
Cc1cc(-n2c(C3CCOCC3)c([C@H]3C[C@H](CC(=O)O)C3)c3cc4[nH]ncc4cc32)ccc1F (single isomer, unassigned) [Compound 94]	1.16 to 3 µM
O=C(O)CCc1c(C2CCOCC2)n(-c2ccc(F)cc2)c2cc3cn[nH]c3cc12 [Compound 107]	> 3 µM
C[C@]1(C(=O)O)C[C@@H](c2c(C3CCOCC3)n(-c3ccc(F)cc3)c3cc4cn[nH]c4cc32)C1 (single isomer, unassigned) [Compound 114]	> 3 µM
Cc1cc(-n2c(C(C)C)c(N3CCOCC3=O)c3cc4[nH]ncc4cc32)ccc1F [Compound 9, 4-[5-(4-fluoro-3-methyl-phenyl)-6-isopropyl-1H-pyrrolo[2,3-f]indazol-7-yl]morpholin-3-one]	> 3 µM
O=C(O)CC1CC(c2c(C3CCOCC3)n(-c3ccc(F)c(Cl)c3)c3cc4cn[nH]c4cc23)C1 (mixture of isomers) [Compound 85]	1.16 to 3 µM
O=C(O)C1CC(Cc2c(C3CCOCC3)n(-c3ccc(F)c(Cl)c3)c3cc4cn[nH]c4cc23)C1 (mixture of isomers) [Compound 79]	1.16 to 3 µM
Fc1ccc(-n2c(C3CCOCC3)cc3cc4[nH]ncc4cc32)cc1 [Compound 60, 5-(4-fluorophenyl)-6-tetrahydropyran-4-yl-1H-pyrrolo[2,3-f]indazole]	> 3 µM
Cc1cc(-n2c(C(C)C)c(C#N)c3cc4[nH]ncc4cc32)ccc1F [Compound 10, 5-(4-fluoro-3-methyl-phenyl)-6-isopropyl-1H-pyrrolo[2,3-f]indazole-7-carbonitrile]	> 3 µM
O=C(O)[C@H]1CC[C@H](Cc2c(C3CCOCC3)n(-c3ccc(F)c(F)c3)c3cc4cn[nH]c4cc23)CC1 (single isomer, unassigned) [Compound 74]	1.16 to 3 µM
COCC(C)(C)c1c(CC2CCS(=O)(=O)CC2)c2cc3[nH]ncc3cc2n1-c1ccc(F)cc1 [Compound 182]	1.16 to 3 µM
Cc1cc(-n2c(C3CCOCC3)c([C@H]3C[C@H](C(=O)O)C3)c3cc4[nH]ncc4cc32)ccc1F [Compound 100]	1.16 to 3 µM
Cc1cc(-n2c(C(C)C)c(CCC(=O)O)c3cc4c(cnn4C)cc32)ccc1F [Compound 195, 3-[5-(4-fluoro-3-methyl-phenyl)-6-isopropyl-1-methyl-pyrrolo[2,3-f]indazol-7-yl]propanoic Acid]	> 3 µM
C[C@]1(C(=O)O)C[C@H](c2c(C3CCOCC3)n(-c3ccc(F)cc3)c3cc4cn[nH]c4cc32)C1 (single isomer, unassigned) [Compound 115]	1.16 to 3 µM
N#Cc1n[nH]c2cc3c(C4CC5(CC(C(=O)O)C5)C4)c(C4CCOCC4)n(-c4ccc(F)c(F)c4)c3cc12 (centres unmarked) [Compound 186, 6-[3-cyano-5-(3,4-difluorophenyl)-6-tetrahydropyran-4-yl-1H-pyrrolo[2,3-f]indazol-7-yl]spiro[3.3]heptane-2-carboxylic Acid]	> 3 µM
CC(C)c1c(CCC(=O)O)c2cc3[nH]ccc3cc2n1-c1ccc(F)cc1 [Compound 200, 3-[1-(4-fluorophenyl)-2-isopropyl-5H-pyrrolo[2,3-f]indol-3-yl]propanoic Acid]	> 3 µM
O=S1(=O)CCC(Cc2c(C3CCOCC3)n(-c3ccc(F)cc3)c3cc4cn[nH]c4cc23)CC1 [Compound 147]	1.16 to 3 µM
Cc1cc(-n2c(C3CCOCC3)c(C[C@H]3C[C@H](C(=O)O)C3)c3cc4[nH]ncc4cc32)ccc1F (single isomer, unassigned) [Compound 98]	1.16 to 3 µM
CC(C)c1c(-c2ccc(F)cc2)c2cc3cn[nH]c3cc2n1CCC(=O)O [Compound 205, 3-[5-(4-fluorophenyl)-6-isopropyl-1H-pyrrolo[3,2-f]indazol-7-yl]propanoic Acid]	1.16 to 3 µM
Fc1ccc(-n2c(C3CCOCC3)c(CCCn3cncn3)c3cc4[nH]ncc4cc32)cc1 [Compound 164]	> 3 µM

Continued, values first:

EC50	SMILES
< 1.16 µM	[H][C@]1(C(=O)O)C[C@]2(C1)C[C@]([H])(c1c(C3CCOCC3)n(-c3ccc(F)c(C)c3)c3cc4cn[nH]c4cc31)C2 (single isomer, unassigned) [Compound 92]
1.16 to 3 µM	[2H]C(C(=O)O)C([2H])([2H])c1c(C(C)C)n(-c2ccc(F)cc2)c2cc3cn[nH]c3cc12 (centres unmarked) [Compound 168, 2,3,3-trideuterio-3-[5-(4-fluorophenyl)-6-isopropyl-1H-pyrrolo[2,3-f]indazol-7-yl]propanoic acid]
1.16 to 3 µM	[2H]C([2H])(Cc1c(C(C)C)n(-c2ccc(F)cc2)c2cc3cn[nH]c3cc12)C(=O)O [Compound 170, 2,2-dideuterio-3-[5-(4-fluorophenyl)-6-isopropyl-1H-pyrrolo[2,3-f]indazol-7-yl]propanoic Acid]
< 1.16 µM	O=C(O)C1CC2(C1)CC(c1c(C3CCOCC3)n(-c3ccc(F)c(F)c3)c3cc4cn[nH]c4cc13)C2 (single isomer, unassigned) [Compound 68]
< 1.16 µM	Cc1cc(-n2c(C3CCOCC3)c(CC3CC(C(=O)O)C3)c3cc4[nH]ncc4cc32)ccc1F (mixture of isomers) [Compound 96]
1.16 to 3 µM	O=S1(=O)CCCN1CCCc1c(C2CCOCC2)n(-c2ccc(F)cc2)c2cc3cn[nH]c3cc12 [Compound 150]
< 1.16 µM	O=C(O)C1CC2(C1)CC(c1c(C3CCOCC3)n(-c3ccc(F)c(F)c3)c3cc4c(Cl)n[nH]c4cc13)C2 (centres unmarked) [Compound 130, 6-[3-chloro-5-(3,4-difluorophenyl)-6-tetrahydropyran-4-yl-1H-pyrrolo[2,3-f]indazol-7-yl]spiro[3.3]heptane-2-carboxylic Acid]
< 1.16 µM	Cc1cc(-n2c(C3CCOCC3)c(C[C@H]3C[C@@H](C(=O)O)C3)c3cc4[nH]ncc4cc32)ccc1F (single isomer, unassigned) [Compound 97]
< 1.16 µM	C=C(C)c1c(C23CC(C(=O)O)(C2)C3)c2cc3[nH]ncc3cc2n1-c1ccc(F)cc1 [Compound 208, 3-[5-(4-fluorophenyl)-6-isopropenyl-1H-pyrrolo[2,3-f]indazol-7-yl]bicyclo[1.1.1]pentane-1-carboxylic Acid]
< 1.16 µM	Cc1cc(-n2c(C(C)C)c(C3CC4(CC(C(=O)O)C4)C3)c3c(F)c4[nH]nc(C)c4cc32)ccc1F (racemic) [Compound 59, 6-[8-fluoro-5-(4-fluoro-3-methyl-phenyl)-6-isopropyl-3-methyl-1H-pyrrolo[2,3-f]indazol-7-yl]spiro[3.3]heptane-2-carboxylic Acid]
< 1.16 µM	Cc1cc(-n2c(C(C)C)c([C@H]3C[C@@H](CC(=O)O)C3)c3cc4[nH]ncc4cc32)ccc1F [Compound 23]
< 1.16 µM	Fc1ccc(-n2c(C3CCOCC3)c(CC3CCOCC3)c3cc4[nH]ncc4cc32)cc1 [Compound 145]
< 1.16 µM	O=C(O)C1CC(Cc2c(C3CCOCC3)n(-c3ccc(F)c(Cl)c3)c3cc4cn[nH]c4cc23)C1 (single isomer, unassigned) [Compound 80]
< 1.16 µM	Cn1cc(CCCc2c(C3CCOCC3)n(-c3ccc(F)cc3)c3cc4cn[nH]c4cc23)cn1 [Compound 144]

From patent US11623924B2, “Modulators of alpha-1 antitrypsin” (Vertex Pharmaceuticals Incorporated, priority 2018, dated 2023)
